Measured values as given in US9606124B2, “Methods of detecting and treating stem-cell containing solid tumors” (The Regents of The University of Michigan, priority 2008, dated 2017).
“Also recorded” adds a separate entry of the source.

Experiments:
[1] = system: four breast cell lines cultured in adherent conditions; test: ALDEFLUOR-positive population of breast cell lines treated with IL8; format: cell-based; details: human recombinant IL8
Procedure: ALDEFLUOR Assay and Separation of the ALDH-positive Population by FACS. ALDH activity was assessed in 33 BCLs representing the main molecular subtypes of human breast cancer. The ALDEFLUOR kit (StemCell technologies, Durham, N.C., USA) was used to isolate the population with high ALDH enzymatic activity (17). Cells obtained from subconfluent cell lines after trypsinization or from freshly dissociated xenografts were suspended in ALDEFLUOR assay buffer containing ALDH substrate (BAAA, 1 μmol/l per 1×10^6 cells) and incubated for 40 minutes at 37° C. In each experiment a sample of cells was stained under identical conditions with […] of diethylaminobenzaldehyde (DEAB), a specific ALDH inhibitor, as negative control. Flow cytometry sorting was conducted using a FACStarPLUS (Becton Dickinson). ALDEFLUOR fluorescence was excited at 488 nm and detected using standard fluorescein isothiocyanate (FITC) 530/30 band pass filter. For xenotransplanted tumors, incubation with an anti-H2Kd antibody (BD biosciences, 1/200, 20 min on ice) followed by a secondary antibody labeled with phycoerythrin (Jackson labs, 1/250, 20 min on ice) was used to eliminate cells of mouse origin. […] For both cell lines, sorted ALDEFLUOR-positive populations contained more than 98% of ALDEFLUOR-positive cells and no ALDEFLUOR-positive cells were detected in the ALDEFLUOR-negative population.

[2] = system: HCC1954, SUM159, MDA-MB-453; test: Tumorsphere formation of breast cell lines treated with IL8; format: cell-based; details: human recombinant IL8
Procedure: Anchorage-independent culture. ALDEFLUOR-positive, -negative and unseparated cells from 184A1, SUM149 and SUM159 were plated as single cells in ultra-low attachment plates (Corning, Acton, Mass.) at low density (5000 viable cells/ml). Cells were grown in serum-free mammary epithelial basal medium (Cambrex Bio Science, Walkerville, Md.) for 3-7 days, as described (18). The capacity of cells to form spheres was quantified after treatment with different doses of IL8 (GenWay Biotech, San Diego, Calif.) added to the medium.

[3] = system: normal mammary epithelial cells; test: Mammosphere formation by normal mammary epithelial cells; format: cell-based, human; details: normal mammary epithelial cells in suspension, human recombinant IL-8
[4] = system: ALDEFLUOR-positive and -negative cells of HCC1954, MDA-MB-453, SUM159; test: Matrigel invasion assay with IL8 as attractant; format: cell-based, human; details: IL8 100 ng/ml as attractant
Procedure: Invasion assay. Assays were done in triplicate in transwell chambers with 8 μm pore polycarbonate filter inserts for 12-well plates (Corning, N.Y.). Filters were coated with 30 ul of ice-cold 1:6 basement membrane extract (Matrigel, BD-Bioscience) in DMEM/F12 incubated 1 hour at 37° C. Cells were added to the upper chamber in 200 ul of serum-free medium. For the invasion assay, 5000 cells were seeded on the Matrigel-coated filters and the lower chamber was filled with 600 ul of medium supplemented with 10% human serum (Cambrex) or with 600 ul of serum-free medium supplemented with IL8 (100 ng/mL). After 48 hours incubation, the cells on the underside of the filter were counted using light microscopy. Relative invasion was normalized to the unseparated corresponding cell lines under serum condition.

FAS-ligand mRNA = test: Quantitative RT-PCR of FAS-ligand mRNA in SUM159 cells; format: cell-based, human; details: repertaxin 100 nM, FAS agonist 500 ng/ml, docetaxel 10 nM, trihydrate
Procedure: RNA extraction and qRT-PCR. After SUM159 cells were treated, total RNA was isolated using RNeasy Mini Kit (QIAGEN) and utilized for real-time quantitative RT-PCR (qRT-PCR) assays in a ABI PRISM® 7900HT sequence detection system.

FOXO3A = test: Immunohistochemistry of FOXO3A in xenotransplants; set-up: species or system NOD/SCID mice; details: mouse, in vivo
Procedure: (§1) Immunostaining. For immunofluorescent staining, sorted CXCR1-positive cells were fixed with 95% methanol at −20° C. for 10 minutes. Cells were rehydrated in PBS and incubated with respective antibodies at room temperature for 1 hour. Primary antibodies used were P-FAK (1:50, Cell Signaling Technology), P-AKT (1:300, Cell Signaling Technology), and FOXO3a (1:250, Cell Signaling Technology). Slides were then washed and incubated 30 minutes with PE conjugated secondary antibodies (Jackson labs). The nuclei were counterstained with DAPI/antifade (Invitrogen) and coverslipped. […] Immunohistochemistry for the detection of ALDH1 (1:100, BD biosciences), P-FAK, P-AKT, FOXO3a expression was done on paraffin section (Ginestier et al. Am. J Pathol. 161:1223-1233, herein incorporated by reference in its entirety). Staining was done utilizing the Histostainplus kit (Zymed laboratories). Diaminobenzidine (DAB) or 3-amino-9-ethylcarbazole (AEC) was used as chromogen and sections were counterstained with hematoxylin.

[5] = system: CD44+/CD24- cell population of MC1, UM2, UM3 xenografts; test: CD44+/CD24- cells in treated tumors (flow cytometry); set-up: species or system NOD/SCID mice; details: mouse, in vivo
Procedure: (§2) Animal model. […] Cells from these tumors were transplanted orthotopically in the humanized cleared fat-pad of NOD/SCID mice, without cultivation in vitro. […] 50,000 cells from each xenotransplants were injected in the humanized fat pad of NOD/SCID mice and monitored the tumor growth. […] The animals were euthanized when the tumors were approximately 1.5 cm in the largest diameter, to avoid tumor necrosis and in compliance with regulations for use of vertebrate animal in research. A portion of each fat pad injected was fixed in formalin and embedded in paraffin for histological analysis. The rest of the tumor cells were re-implantated into secondary NOD/SCID mice. Serial dilutions of cells were utilized for the re-implantation with injection of 10,000, 1,000, and 100 cells for each treated tumor.
Flow cytometry analysis. […] CD95/FAS staining were performed utilizing an anti-CD95 labeled APC (1:20, BD biosciences). […] Fresh cells were stained with 1 μg/ml PI (Sigma) for 5 min for viability.

ALDH1 = test: Immunohistochemistry of ALDH1 in xenotransplants; format: in vivo, NOD/SCID mice; details: compared to untreated tumors
Procedure: as §1

[6] = system: cells from primary tumors SUM159, MC1, UM2, UM3; test: Re-implantation of cells from treated tumors into secondary mice; format: in vivo, NOD/SCID mice
Procedure: as §2, with “Serial dilutions of cells were utilized for the re-implantation with injection of 10,000, 1,000, and 100 cells for each treated tumor.” left out

[7] = system: ALDEFLUOR-positive cells of SUM159, MC1, UM2, UM3 tumors; test: ALDEFLUOR assay on treated tumor xenografts; format: in vivo, NOD/SCID mice; details: residual tumors after four weeks of treatment; trihydrate
Procedure: ALDEFLUOR assay. […] In order to eliminate cells of mouse origin from the xenotransplanted tumors, cell population was stained with an anti-H2Kd antibody (BD biosciences, 1/200, 20 min on ice) followed by staining with a secondary antibody labeled with phycoerythrin (PE) (Jackson labs, 1/250, 20 min on ice).
as §2

[8] = system: SUM159 cell line and human breast cancer xenografts MC1, UM2, UM3; test: Tumor growth of breast cancer xenografts in the mammary fat pad; format: in vivo, NOD/SCID mice; details: repertaxin 15 mg/Kg s.c. twice a day 28 days, docetaxel 10 mg/Kg i.p. once a week, start at tumor size about 4 mm, trihydrate
Procedure: For each sample, 50,000 cells were injected into the mammary fat pad of NOD-SCID mice which were monitored for tumor size. Injections were started when the tumor size was about 4 mm.
as §2

## IL8: human recombinant IL8 (GenWay Biotech), chemokine ligand of CXCR1
[1]
  ALDEFLUOR-positive population: increased the ALDEFLUOR-positive population in a dose-dependent manner
[2]
  formation of primary and secondary tumorspheres: increased the formation of primary and secondary tumorspheres in a dose-dependent manner; also recorded: increased the formation of primary and secondary tumorospheres in a dose-dependent manner
[3]
  formation of primary and secondary mammospheres: increased the formation of primary (B) and secondary mammospheres (C) in a dose-dependent manner
[3]; listed as IL-8
  formation of primary and secondary mammospheres: increased the formation of primary and secondary mammospheres in a dose-dependent manner
[4]
  invasive capacity of ALDEFLUOR-negative cells: did not have any effect; also recorded: no effect
[4]; compared to serum
  invasion of ALDEFLUOR-positive cells through Matrigel: increased invasion; also recorded: significant increase

## CC(=O)O[C@@]12CO[C@@H]1C[C@H](O)[C@@]1(C)C(=O)[C@H](O)C3=C(C)[C@@H](OC(=O)[C@H](O)[C@@H](NC(=O)OC(C)(C)C)c4ccccc4)C[C@@](O)([C@@H](OC(=O)c4ccccc4)[C@H]21)C3(C)C [Docetaxel, (2R,3S)-N-carboxy-3-phenylisoserine, N-tert-butyl ester, 13-ester with 5b-20-epoxy-12a,4,7b,10b,13a-hexahydroxytax-11-en-9-one 4-acetate 2-benzoate, trihydrate]
FAS-ligand mRNA; listed as docetaxel
  increase of FAS-ligand mRNA level compared to non-treated cells: induced both IL-8 and FAS-ligand mRNA
FAS-ligand mRNA
  increase of FAS-ligand mRNA level compared to non-treated cells: induced both FAS-ligand (A) and IL-8 (B) mRNA
FOXO3A
  nuclear FOXO3A in treated tumors: detected
[5]
  percent of CD44+/CD24- cells in residual tumors: unchanged or increased percent
ALDH1
  ALDH1-positive cells / ALDH1 expression in treated tumors: unchanged or increased
[6]; number of cells injected 100
  Tumors/Injections: 8/9
[6]; number of cells injected 250
  Tumors/Injections: 2/3
[6]; number of cells injected 500
  Tumors/Injections: 3/4
[6]; number of cells injected 1,000
  Tumors/Injections: 6/6
[6]; number of cells injected 2,500
  Tumors/Injections: 2/2
[6]; number of cells injected 5,000
  Tumors/Injections: 4/4
[6]; number of cells injected 10,000
  Tumors/Injections: 2/2
[6]; secondary NOD/SCID mice, no further treatment, trihydrate
  secondary tumor formation / regrowth from serial dilutions of treated primary tumors: formed secondary tumors at all dilutions
[7]
  ALDEFLUOR-positive cells (cancer stem cells) in treated tumors, decrease compared to the control: unchanged or increased
[8]; listed as docetaxel
  tumor size / tumor growth compared to the control: significant inhibition of tumor growth; also recorded: statistically significant reduction of the tumor size
[8]
  tumor size / tumor growth compared to the control: statistically significant reduction of the tumor size
